Data: patent publication US7825139B2, “Compounds and methods for selective inhibition of dipeptidyl peptidase-IV” (Forest Laboratories Holdings Limited (BM), priority 2005, dated 2010)

What was measured:
[1] = target: T1, DPP-IX (Homo sapiens, UniProt Q86TI2); test: DPP-IX IC50 assay (Ala-Pro AMC); format: biochemical
T1 construct: The full length cDNAs for human DPP-VII, DPP-VIII, DPP-IX, and FAP were obtained from Open Biosystems; 6xHis (C); made in house
Experimental: Materials. S9 insect cells and Sf-900 II SFM media were from Invitrogen. Anti-FLAG M2 immunoaffinity gel was from Sigma. Gly-Pro-AMC, Lys-Pro AMC, and Ala-Pro AMC were from Enzyme Systems. IC50 calculations were performed by non-linear regression analysis using Prism software (GraphPad). Preparation of DPP-VII, DPP-VIII, DPP-IX, and FAP baculovirus constructs. The full length cDNAs for human DPP-VII, DPP-VIII, DPP-IX, and FAP were obtained from Open Biosystems. The cDNAs were cloned into the pFastBac vector with the addition of an N-terminal FLAG tag on DPP-VII, C-terminal 6xHis tags on DPP-VIII and DPP-IX, and an N-terminal 6xHis tag on FAP (Sun 2002, Qi 2003, and Chen 2004). Baculovirus was prepared using the Bac-to-Bac Baculovirus Expression System (Invitrogen). The cDNAs in the final baculovirus constructs were sequence verified. Baculovirus expression. S9 cells were grown to mid log phase at 27C with shaking at 125 RPM and then adjusted to 2×10E6/ml just prior to baculovirus infection. Infection with DPP-VII, DPP-VIII, DPP-IX, and FAP baculoviral constructs were all performed at an MOI of 4. […] Recombinant DPPs were diluted in reaction buffer to give fluorescence values of 5000-20000 counts in the “enzyme only wells” 20 min after addition of substrate at 27° C. […] Fluorescence in each well was measured at settings of 380/460 nm. […]

[2] = target: T2, DPP-IV (Sus scrofa, UniProt P22411); test: DPP-IV fluorometric enzyme inhibition assay (Gly-Pro-AMC); format: biochemical, porcine
T2 construct: from tissue; host or cells: porcine
T2 sequence (P22411 whole entry): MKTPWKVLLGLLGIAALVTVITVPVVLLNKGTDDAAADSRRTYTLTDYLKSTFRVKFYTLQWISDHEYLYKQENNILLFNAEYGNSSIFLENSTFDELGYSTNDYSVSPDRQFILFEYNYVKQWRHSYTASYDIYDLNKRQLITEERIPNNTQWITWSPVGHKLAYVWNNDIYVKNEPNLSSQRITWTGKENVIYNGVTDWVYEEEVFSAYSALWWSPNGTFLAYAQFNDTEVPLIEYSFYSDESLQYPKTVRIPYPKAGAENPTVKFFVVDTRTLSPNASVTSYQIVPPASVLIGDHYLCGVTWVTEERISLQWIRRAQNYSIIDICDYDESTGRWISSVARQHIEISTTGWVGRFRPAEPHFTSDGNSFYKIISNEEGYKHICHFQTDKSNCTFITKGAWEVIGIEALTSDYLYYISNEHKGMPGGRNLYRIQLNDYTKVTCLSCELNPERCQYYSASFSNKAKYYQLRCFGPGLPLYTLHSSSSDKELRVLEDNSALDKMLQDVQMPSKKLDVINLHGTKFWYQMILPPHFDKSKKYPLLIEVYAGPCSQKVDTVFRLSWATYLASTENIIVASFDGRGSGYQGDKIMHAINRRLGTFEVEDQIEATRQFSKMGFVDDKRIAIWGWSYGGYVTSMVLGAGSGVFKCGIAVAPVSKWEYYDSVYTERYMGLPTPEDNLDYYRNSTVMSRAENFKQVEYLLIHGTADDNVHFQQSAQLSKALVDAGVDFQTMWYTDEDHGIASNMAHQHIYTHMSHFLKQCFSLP
Experimental: The following methods were used to measure the activities of the compounds of the invention which inhibit the enzymatic activity of DPP-IV. The compounds of the invention are tested for their ability to inhibit the enzyme activity of purified DPP-IV. Briefly, the activity of DPP-IV is measured in vitro by its ability to cleave the synthetic substrate Gly-Pro-AMC. Cleavage of Gly-Pro-AMC by DPP-IV liberates the product AMC (7-amino-4-methyl coumarin), whose rate of appearance is directly proportional to the enzyme activity. Inhibition of the enzyme activity by specific enzyme inhibitors slows down the generation of AMC. […] The accumulation of AMC is measured fluorometrically. […]
Thus, DPP-IV enzyme activity was determined by a fluorometric assay with the substrate Gly-Pro-AMC which is cleaved by DPP-IV to release the fluorescent AMC leaving group. Free AMC (7-amino-4-methyl coumarin) was measured using an excitation wavelength of 380 nm and an emission wavelength of 460 nm with a Victor-II fluorescent reader. […] After 10-minutes substrate was added (10 μl) and allowed to react for 20-minutes at 26° C. before free AMC was measured. IC50 values were determined in triplicate, using a minimum of six different inhibitor concentrations. IC50 values were calculated using Nonlinear Regression Analysis (GraphPad, Prism, San Diego, Calif.). […]

T1 sequence (Q86TI2 whole entry): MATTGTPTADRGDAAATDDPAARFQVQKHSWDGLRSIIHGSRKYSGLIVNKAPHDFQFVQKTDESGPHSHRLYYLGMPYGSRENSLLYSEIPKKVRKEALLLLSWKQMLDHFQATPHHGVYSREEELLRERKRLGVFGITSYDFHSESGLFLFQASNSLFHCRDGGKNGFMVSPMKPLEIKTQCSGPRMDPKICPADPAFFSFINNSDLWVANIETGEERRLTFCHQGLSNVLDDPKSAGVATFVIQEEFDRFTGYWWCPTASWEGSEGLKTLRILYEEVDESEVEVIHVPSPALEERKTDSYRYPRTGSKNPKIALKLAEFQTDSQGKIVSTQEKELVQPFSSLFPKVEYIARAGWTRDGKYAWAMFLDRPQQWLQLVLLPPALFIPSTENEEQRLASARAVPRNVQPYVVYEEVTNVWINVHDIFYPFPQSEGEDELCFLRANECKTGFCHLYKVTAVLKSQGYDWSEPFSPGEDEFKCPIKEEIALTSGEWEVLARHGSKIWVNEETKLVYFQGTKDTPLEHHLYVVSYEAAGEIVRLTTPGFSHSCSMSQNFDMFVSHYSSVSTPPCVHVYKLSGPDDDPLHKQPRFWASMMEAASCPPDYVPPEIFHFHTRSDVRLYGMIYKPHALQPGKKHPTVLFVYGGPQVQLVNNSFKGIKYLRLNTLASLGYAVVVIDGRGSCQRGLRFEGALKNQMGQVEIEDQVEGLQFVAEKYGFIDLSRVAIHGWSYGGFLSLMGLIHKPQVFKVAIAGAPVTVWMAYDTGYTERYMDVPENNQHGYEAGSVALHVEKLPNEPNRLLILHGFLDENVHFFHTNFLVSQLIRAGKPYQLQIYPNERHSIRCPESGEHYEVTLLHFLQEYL

SMILES: O=C(CNC1CCCC1)N1CCC[C@H]1B(O)O [Compound 19]
- inhibition of DPP-IX (in words) [1]: potent inhibitor
- inhibition of DPP-IV (in words) [2]: potent inhibitor
